Key:
CASOB (Sicklepod) = test: Postemergence herbicidal evaluation; type: in vivo, Cassia obtusifolia; conditions: postemergence
How it was run: (§1)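 ~2-wk seedlings; postemergence spray, 40 psi; vehicle 1:1 acetone:water + 0.5% Tween 20; rate ≈0.0156–0.500 kg/ha; greenhouse hold; scored 4–5 wk after treatment, 0–9 scale vs control; repeat tests averaged.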

[1] = system: CHEAL (Lambsquarters, Common); test: Postemergence herbicidal evaluation; type: in vivo, Chenopodium album; conditions: postemergence
How it was run: as §1

GALAP (Galium) = test: Postemergence herbicidal evaluation; type: in vivo, Galium aparine; conditions: postemergence
How it was run: as §1

ORYSAT (Rice, Tebonnet) [2] = test: Postemergence herbicidal evaluation; type: in vivo, Oryza sativa, (L.) Tebonnet; conditions: postemergence
How it was run: as §1

ZEAMX (Corn, Field) = test: Postemergence herbicidal evaluation; type: in vivo, Zea mays; conditions: postemergence
How it was run: as §1

AMBEL (Ragweed, Common) = test: Preemergence herbicidal evaluation; type: in vivo, Ambrosia artemisifolia; conditions: rated 4-5 weeks after treatment, rating scale 0-9
How it was run: (§2)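 Steps: mix seeds into potting soil; plant atop ~1 inch soil; spray compound in aqueous acetone (~0.0156-0.500 kg/ha equivalent); maintain in greenhouse with watering; rate visually 0-9 versus control at 4-5 weeks.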

SETVI (Foxtail, Green) = test: Preemergence herbicidal evaluation; type: in vivo, Setaria viridis; conditions: rated 4-5 weeks after treatment, rating scale 0-9
How it was run: as §2

[3] = system: GLXMAW (Soybean, Williams); test: Preemergence herbicidal evaluation; type: in vivo, Glycine max, (L.) Merr. cv Williams; conditions: rated 4-5 weeks after treatment, rating scale 0-9
How it was run: as §2

ORYSAT (Rice, Tebonnet) [4] = test: Preemergence herbicidal evaluation; type: in vivo, Oryza sativa, (L.) Tebonnet; conditions: rated 4-5 weeks after treatment, rating scale 0-9
How it was run: as §2

CYPSE (Flatsedge) = test: Preemergence weed control under flooded paddy conditions; type: in vivo, Cyperus serotinus; conditions: rated 3-4 weeks after treatment
How it was run: (§3)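 Flooded-pot preemergence screen with silt loam and seeds in the upper 0.5 cm. Dose about 0.0313 to 0.500 kg/ha, delivered into flood water; visual 0-9 score after 3 to 4 weeks.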

MOOVA (Monochoria) = test: as above; type: in vivo, Monochoria vaginalis; conditions: rated 3-4 weeks after treatment
How it was run: as §3

With `CN(C)c1ccc(CN2C(=O)CSC2=Nc2cc(-n3c(=O)cc(C(F)(F)F)n(C)c3=O)c(F)cc2Cl)cc1` [Compound 138, 3-{4-Chloro-5-{{3-[p-(dimethylamino)benzyl]-4-oxo-2-thiazolidinylidene}amino}-2-fluorophenyl}-1-methyl-6-(trifluoromethyl)-2,4(1H,3H)-pyrimidinedione] the “Herbicidal rating CASOB” value (CASOB (Sicklepod); rate 0.0156 kg/ha) was 0.0, the “Herbicidal rating CASOB” value (CASOB (Sicklepod); rate 0.0313 kg/ha) was 1.0 and the “Herbicidal rating CASOB” value (CASOB (Sicklepod); rate 0.0625 kg/ha) was 6.0. For the same compound, the “Herbicidal rating CHEAL” value ([1]; rate 0.0156 kg/ha) was 9.0, the “Herbicidal rating CHEAL” value ([1]; rate 0.0313 kg/ha) was 9.0 and the “Herbicidal rating CHEAL” value ([1]; rate 0.0625 kg/ha) was 9.0. For the same compound, the “Herbicidal rating GALAP” value (GALAP (Galium); rate 0.0156 kg/ha) was 0.0, the “Herbicidal rating GALAP” value (GALAP (Galium); rate 0.0313 kg/ha) was 2.0 and the “Herbicidal rating GALAP” value (GALAP (Galium); rate 0.0625 kg/ha) was 2.0. The “Herbicidal rating ORYSAT” value (ORYSAT (Rice, Tebonnet) [2]; rate 0.0156 kg/ha) was 1.5, the “Herbicidal rating ORYSAT” value (ORYSAT (Rice, Tebonnet) [2]; rate 0.0313 kg/ha) was 2.5 and the “Herbicidal rating ORYSAT” value (ORYSAT (Rice, Tebonnet) [2]; rate 0.0625 kg/ha) was 3.0. The “Herbicidal rating ZEAMX” value (ZEAMX (Corn, Field); rate 0.0156 kg/ha) was 4.0, the “Herbicidal rating ZEAMX” value (ZEAMX (Corn, Field); rate 0.0313 kg/ha) was 4.5 and the “Herbicidal rating ZEAMX” value (ZEAMX (Corn, Field); rate 0.0625 kg/ha) was 5.0. The “Preemergence herbicidal rating AMBEL” value (AMBEL (Ragweed, Common); rate 0.0156 kg/ha) was 0.0, the “Preemergence herbicidal rating AMBEL” value (AMBEL (Ragweed, Common); rate 0.0313 kg/ha) was 0.0 and the “Preemergence herbicidal rating AMBEL” value (AMBEL (Ragweed, Common); rate 0.0625 kg/ha) was 0.0. For the same compound, the “Preemergence herbicidal rating AMBEL” value (AMBEL (Ragweed, Common); rate 0.1250 kg/ha) was 1.0, the “Preemergence herbicidal rating AMBEL” value (AMBEL (Ragweed, Common); rate 0.2500 kg/ha) was 2.0 and the “Preemergence herbicidal rating SETVI” value (SETVI (Foxtail, Green); rate 0.0156 kg/ha) was 0.0. The “Preemergence herbicidal rating SETVI” value (SETVI (Foxtail, Green); rate 0.0313 kg/ha) was 0.0, the “Preemergence herbicidal rating SETVI” value (SETVI (Foxtail, Green); rate 0.0625 kg/ha) was 0.0 and the “Preemergence herbicidal rating SETVI” value (SETVI (Foxtail, Green); rate 0.1250 kg/ha) was 3.0. The “Preemergence herbicidal rating SETVI” value (SETVI (Foxtail, Green); rate 0.2500 kg/ha) was 2.0, the “Preemergence herbicidal rating GLXMAW” value ([3]; rate 0.0156 kg/ha) was 0.0 and the “Preemergence herbicidal rating GLXMAW” value ([3]; rate 0.0313 kg/ha) was 0.0. For the same compound, the “Preemergence herbicidal rating GLXMAW” value ([3]; rate 0.0625 kg/ha) was 0.0, the “Preemergence herbicidal rating GLXMAW” value ([3]; rate 0.1250 kg/ha) was 0.0 and the “Preemergence herbicidal rating GLXMAW” value ([3]; rate 0.2500 kg/ha) was 1.0. For the same compound, the “Preemergence herbicidal rating ORYSAT” value (ORYSAT (Rice, Tebonnet) [4]; rate 0.0156 kg/ha) was 0.0, the “Preemergence herbicidal rating ORYSAT” value (ORYSAT (Rice, Tebonnet) [4]; rate 0.0313 kg/ha) was 0.0 and the “Preemergence herbicidal rating ORYSAT” value (ORYSAT (Rice, Tebonnet) [4]; rate 0.0625 kg/ha) was 0.0. For the same compound, the “Preemergence herbicidal rating ORYSAT” value (ORYSAT (Rice, Tebonnet) [4]; rate 0.1250 kg/ha) was 0.0, the “Preemergence herbicidal rating ORYSAT” value (ORYSAT (Rice, Tebonnet) [4]; rate 0.2500 kg/ha) was 0.0 and the “herbicidal effect rating, CYPSE” value (CYPSE (Flatsedge); 0.0313 kg/ha) was 0.0. The “herbicidal effect rating, CYPSE” value (CYPSE (Flatsedge); 0.0625 kg/ha) was 0.0, the “herbicidal effect rating, CYPSE” value (CYPSE (Flatsedge); 0.1250 kg/ha) was 0.0 and the “herbicidal effect rating, CYPSE” value (CYPSE (Flatsedge); 0.2500 kg/ha) was 0.0. The “herbicidal effect rating, MOOVA” value (MOOVA (Monochoria); 0.0313 kg/ha) was 5.0, the “herbicidal effect rating, MOOVA” value (MOOVA (Monochoria); 0.0625 kg/ha) was 6.0 and the “herbicidal effect rating, MOOVA” value (MOOVA (Monochoria); 0.1250 kg/ha) was 6.0. For the same compound, the “herbicidal effect rating, MOOVA” value (MOOVA (Monochoria); 0.2500 kg/ha) was 7.0.
With `COc1cc(CN2C(=O)CSC2=Nc2cc(-n3c(=O)cc(C(F)(F)F)n(C)c3=O)c(F)cc2Cl)cc(OC)c1OC` [Compound 140, 3-{4-Chloro-2-fluoro-5-{[3-(3,4,5-trimethoxybenzyl)-4-oxo-2-thiazolidinylidene]amino}phenyl}-1-methyl-6-(trifluoromethyl)-2,4(1H,3H)-pyrimidinedione] the “Herbicidal rating CASOB” value (CASOB (Sicklepod); rate 0.0156 kg/ha) was 0.0, the “Herbicidal rating CASOB” value (CASOB (Sicklepod); rate 0.0313 kg/ha) was 0.0 and the “Herbicidal rating CASOB” value (CASOB (Sicklepod); rate 0.0625 kg/ha) was 0.0. For the same compound, the “Herbicidal rating CHEAL” value ([1]; rate 0.0156 kg/ha) was 3.0, the “Herbicidal rating CHEAL” value ([1]; rate 0.0625 kg/ha) was 3.0 and the “Herbicidal rating GALAP” value (GALAP (Galium); rate 0.0156 kg/ha) was 0.0. For the same compound, the “Herbicidal rating GALAP” value (GALAP (Galium); rate 0.0313 kg/ha) was 0.0, the “Herbicidal rating GALAP” value (GALAP (Galium); rate 0.0625 kg/ha) was 2.0 and the “Herbicidal rating ORYSAT” value (ORYSAT (Rice, Tebonnet) [2]; rate 0.0156 kg/ha) was 0.5. For the same compound, the “Herbicidal rating ORYSAT” value (ORYSAT (Rice, Tebonnet) [2]; rate 0.0313 kg/ha) was 0.5, the “Herbicidal rating ORYSAT” value (ORYSAT (Rice, Tebonnet) [2]; rate 0.0625 kg/ha) was 1.5 and the “Herbicidal rating ZEAMX” value (ZEAMX (Corn, Field); rate 0.0156 kg/ha) was 3.5. For the same compound, the “Herbicidal rating ZEAMX” value (ZEAMX (Corn, Field); rate 0.0313 kg/ha) was 4.0, the “Herbicidal rating ZEAMX” value (ZEAMX (Corn, Field); rate 0.0625 kg/ha) was 4.0 and the “Preemergence herbicidal rating AMBEL” value (AMBEL (Ragweed, Common); rate 0.0625 kg/ha) was 0.0. For the same compound, the “Preemergence herbicidal rating AMBEL” value (AMBEL (Ragweed, Common); rate 0.1250 kg/ha) was 0.0, the “Preemergence herbicidal rating AMBEL” value (AMBEL (Ragweed, Common); rate 0.2500 kg/ha) was 0.0 and the “Preemergence herbicidal rating SETVI” value (SETVI (Foxtail, Green); rate 0.0625 kg/ha) was 0.0. The “Preemergence herbicidal rating SETVI” value (SETVI (Foxtail, Green); rate 0.1250 kg/ha) was 0.0, the “Preemergence herbicidal rating SETVI” value (SETVI (Foxtail, Green); rate 0.2500 kg/ha) was 0.0 and the “Preemergence herbicidal rating GLXMAW” value ([3]; rate 0.0625 kg/ha) was 0.0. For the same compound, the “Preemergence herbicidal rating GLXMAW” value ([3]; rate 0.1250 kg/ha) was 0.0, the “Preemergence herbicidal rating GLXMAW” value ([3]; rate 0.2500 kg/ha) was 0.0 and the “Preemergence herbicidal rating ORYSAT” value (ORYSAT (Rice, Tebonnet) [4]; rate 0.0625 kg/ha) was 0.0. The “Preemergence herbicidal rating ORYSAT” value (ORYSAT (Rice, Tebonnet) [4]; rate 0.1250 kg/ha) was 0.0, the “Preemergence herbicidal rating ORYSAT” value (ORYSAT (Rice, Tebonnet) [4]; rate 0.2500 kg/ha) was 0.0 and the “herbicidal effect rating, CYPSE” value (CYPSE (Flatsedge); 0.0313 kg/ha) was 0.0. The “herbicidal effect rating, CYPSE” value (CYPSE (Flatsedge); 0.0625 kg/ha) was 0.0, the “herbicidal effect rating, CYPSE” value (CYPSE (Flatsedge); 0.1250 kg/ha) was 0.0 and the “herbicidal effect rating, CYPSE” value (CYPSE (Flatsedge); 0.2500 kg/ha) was 0.0. For the same compound, the “herbicidal effect rating, MOOVA” value (MOOVA (Monochoria); 0.0313 kg/ha) was 4.0, the “herbicidal effect rating, MOOVA” value (MOOVA (Monochoria); 0.0625 kg/ha) was 7.0 and the “herbicidal effect rating, MOOVA” value (MOOVA (Monochoria); 0.1250 kg/ha) was 9.0. For the same compound, the “herbicidal effect rating, MOOVA” value (MOOVA (Monochoria); 0.2500 kg/ha) was 9.0.
